Legend:
E. coli CFT073 [1] = assay: Antimicrobial activity assay, E. coli CFT073; type: cell-based, Escherichia coli; settings: for effect of preloading Fe(III) on antibacterial activity: Fe(III)-loaded versus apo conjugates; for concentration providing complete growth inhibition: 200 μM DP (iron-deficient)
Description: (§1) Overnight cultures of the bacterial strains were prepared by inoculating 5 mL of LB with the bacterial freezer stocks and the cultures were incubated at 37° C. in a tabletop incubator shaker set at 150 rpm. The overnight culture grew to saturation and was diluted 1:100 into 5 mL of fresh LB medium containing DP (200 μM) and incubated at 37° C. with shaking at 150 rpm until OD600 reached 0.6. The cultures were subsequently diluted to an OD600 value of 0.001 in 50% MHB medium (11.5 g/L) with or without DP (200 μM). No antibiotic marker was included in these cultures. A 90-μL aliquot of the diluted culture was combined with a 10-μL aliquot of a 10× solution of the tested compounds in a 96-well plate, which was wrapped in […] and incubated at 30° C. with shaking at 150 rpm for 19 h. Bacterial growth was determined by measuring OD600 using a BIOTEK SYNERGY HT plate reader. Each well condition was prepared in duplicate, and at least three independent replicates were conducted on different days. The resulting mean OD600 are reported and the error bars are the standard deviation.
In another exemplary experiment, antibacterial activities of the conjugates were tested against E. coli CFT073 in 50% MHB at 30° C., t=19 h. DP (200 μM) was added to provide conditions of iron limitation.
In another exemplary experiment, antibacterial activities of Fe(III)-loaded or apo Ent-β-lactam conjugates (Ent-Amp and Ent-Amx) and their glucosylated derivatives (MGE-Amp, MGE-Amx, DGE-Amp, and DGE-Amx) against the uropathogenic strain E. coli CFT073 were tested in 50% MHB, 30° C., t=19 h. 2,2′-dipyridyl (DP, 200 μM) was added to provide conditions of iron limitation.

S. aureus ATCC 25923 = assay: Antibacterial activity assay, S. aureus; type: cell-based, Staphylococcus aureus; settings: iron limitation (200 μM 2,2′-dipyridyl)
Description: (§2) No antibiotic marker was included in these cultures. […] Bacterial growth was determined by measuring OD600 using a BIOTEK SYNERGY HT plate reader. Each well condition was prepared in duplicate, and at least three independent replicates were conducted on different days. The resulting mean OD600 are reported and the error bars are the standard deviation.
Ampicillin and amoxicillin are β-lactam antibiotics that have periplasmic targets in Gram-negative bacteria and inhibit cell wall biosynthesis. The antibacterial activity of Ent-ampicillin and Ent-amoxicillin conjugates 44 and 45 was evaluated in vitro against a panel of Gram-negative and positive-bacteria. FIG. 6 provides exemplary results from antibacterial activity assays against select bacterial species that include non-pathogenic and pathogenic E. coli strains and also Staphylococcus aureus. Under conditions of iron limitation (200 μM 2,2′-dipyridyl), the conjugates provide 100- to 1000-fold improved activity against various E. coli strains, including human pathogens, compared to the unmodified antibiotics.

E. coli CFT073 [2] = assay: Competition assay with native siderophores, E. coli CFT073; type: cell-based, Escherichia coli; settings: conjugate 100 nM, varied Ent, MGE or DGE, 50% MHB, 200 μM DP, 30° C., t=19 h
Description: These assays were performed following the general procedure described herein except that varying concentrations of Ent, MGE, or DGE, each of which was unmodified, were mixed with Ent-Amp, Ent-Amx, MGE-Amp, MGE-Amx, DGE-Amp, or DGE-Amx. Ent was synthesized following a literature procedure^55 and stored as DMSO stock solution at −20° C. MGE and DGE were prepared from Ent using MceC and IroB as described for MGE-PEG3-N3 and DGE-PEG3-N3.
(§3) In another exemplary experiment, select conjugates (Ent-Amp, MGE-Amp, and DGE-Amp) with select native siderophores (Ent, MGE, and DGE) were tested against the uropathogenic strain E. coli CFT073 in 50% MHB, t=19 h, 30° C. 2,2′-dipyridyl (DP, 200 μM) was added to provide conditions of iron limitation. The concentration of the conjugates was fixed at 100 nM and the concentration of the native siderophores was varied.
as §3, with “(Ent-Amx, MGE-Amx,” for “(Ent-Amp, MGE-Amp,”, “DGE-Amx)” for “DGE-Amp)”, “DP (200” for “2,2′-dipyridyl (DP, 200”

[3] = tested on: E. coli CFT073 in the presence of S. aureus 25923; assay: Co-culture of E. coli CFT073 and S. aureus 25923; type: cell-based, Escherichia coli; settings: co-culture in a 1:1 ratio
Excerpt: (FIG. 20A) Images showing three cultures untreated with any antibiotics: E. coli CFT073, S. aureus 25923, and E. coli CFT073 and S. aureus 25923 co-culture (in a 1:1 ratio). (FIG. 20B) Images showing co-cultures of E. coli CFT073 and S. aureus 25923 (in a 1:1 ratio), in the absence of any antibiotics or in the presence of Amp, Amx, Ent-Amp, or Ent-Amx.

E. coli K-12 = assay: Antimicrobial activity assay, E. coli K-12; type: cell-based, Escherichia coli; settings: for concentrations at which E. coli K-12 was inhibited: inhibition attributed to iron deprivation
Description: as §1
In an exemplary experiment, antibacterial activities of the conjugates were tested against E. coli K-12 in 50% MHB at 30° C., t=19 h. 2,2′-dipyridyl (DP, 200 μM) was added to provide conditions of iron limitation.

E. coli B = assay: Antimicrobial activity assay, E. coli B; type: cell-based, Escherichia coli; settings: 50% MHB, 30° C., t=19 h
Description: as §1
In another exemplary experiment, antibacterial activities of the conjugates were tested against E. coli B in 50% MHB at 30° C., t=19 h. DP (200 μM) was added to provide conditions of iron limitation.

E. coli UTI89 = assay: Antimicrobial activity assay, E. coli UTI89; type: cell-based, Escherichia coli; settings: 50% MHB, 200 μM DP (iron-deficient), 30° C., t=19 h
Description: as §2
In another exemplary experiment, antibacterial activities of the conjugates were tested against E. coli UTI89 in 50% MHB at 30° C., t=19 h. […] Under iron-deficient conditions, Ent-Amp, MGE-Amp, and DGE-Amp provided a complete growth inhibition at 100 nM.

[4] = tested on: uropathogenic E. coli and non-pathogenic E. coli; assay: Mixed culture assays (summary), uropathogenic and non-pathogenic E. coli; type: cell-based, Escherichia coli; settings: uropathogenic with non-pathogenic E. coli
Excerpt: No antibiotic marker was included in these cultures.

[5] = 50% MHB, 200 μM DP, 30° C., t=19 h

CC1(C)SC2C(NC(=O)C(NC(=O)CCCc3cn(CCOCCOCCOCCNC(=O)c4cc(O)c(O)c(C(=O)NC5COC(=O)C(NC(=O)c6cccc(O)c6O)COC(=O)C(NC(=O)c6cccc(O)c6O)COC5=O)c4)nn3)c3ccc(O)cc3)C(=O)N2C1C(=O)O (stereo not drawn) [Ent-Amx]
effect of preloading Fe(III) on antibacterial activity (E. coli CFT073 [1]; [5]): no effect
enhancement of activity compared to the unmodified antibiotics (S. aureus ATCC 25923): no enhancement of activity
attenuation of antibacterial activity by native siderophores (E. coli CFT073 [2]): only attenuated in the presence of Ent or MGE
killing of E. coli CFT073 co-cultured with S. aureus 25923 [3]: killed E. coli CFT073

CC1(C)SC2C(NC(=O)C(NC(=O)CCCc3cn(CCOCCOCCOCCNC(=O)c4cc(O)c(O)c(C(=O)NC5COC(=O)C(NC(=O)c6cc(C7OC(CO)C(O)C(O)C7O)cc(O)c6O)COC(=O)C(NC(=O)c6cc(C7OC(CO)C(O)C(O)C7O)cc(O)c6O)COC5=O)c4)nn3)c3ccccc3)C(=O)N2C1C(=O)O (stereo not drawn) [DGE-Amp]
antibacterial activity at 100 nM (E. coli K-12; [5]): inactive
concentration at which growth inhibition was observed (attributed to iron deprivation) (E. coli K-12; [5]): 10 µM
concentrations at which E. coli K-12 was inhibited (E. coli K-12): micromolar concentrations
antibacterial activity at 100 nM (E. coli B; 200 μM DP): inactive
concentration at which growth inhibition was observed (attributed to iron deprivation) (E. coli B; 200 μM DP): 10 µM
concentration providing complete growth inhibition (E. coli UTI89): 100 nM
concentration providing complete growth inhibition (E. coli CFT073 [1]; 50% MHB, 30° C., t=19 h): 10 nM
improved antibacterial activity against E. coli CFT073 over E. coli K-12 (E. coli CFT073 [1]; CFT073 (FepA and IroN) versus K-12 (FepA only)): 100 fold
effect of preloading Fe(III) on antibacterial activity (E. coli CFT073 [1]; [5]): no effect
attenuation of antibacterial activity by native siderophores (E. coli CFT073 [2]): attenuated by Ent, MGE, and DGE
strain-specific growth inhibition in the mixed culture assays [4]: specifically inhibited the growth of the uropathogenic E. coli

CC1(C)SC2C(NC(=O)C(NC(=O)CCCc3cn(CCOCCOCCOCCNC(=O)c4cc(O)c(O)c(C(=O)NC5COC(=O)C(NC(=O)c6cccc(O)c6O)COC(=O)C(NC(=O)c6cccc(O)c6O)COC5=O)c4)nn3)c3ccccc3)C(=O)N2C1C(=O)O (stereo not drawn) [Ent-Amp]
concentration providing complete growth inhibition (E. coli K-12; 50% MHB, 200 μM DP (iron-deficient), 30° C., t=19 h): 100 nM
concentration providing complete growth inhibition (E. coli B; 200 μM DP (iron-deficient)): 100 nM
concentration providing complete growth inhibition (E. coli UTI89): 100 nM
antibacterial activity at 10 nM (E. coli CFT073 [1]; 10 nM, 50% MHB, 200 μM DP, 30° C., t=19 h): slightly less active
effect of preloading Fe(III) on antibacterial activity (E. coli CFT073 [1]; [5]): no effect
enhancement of activity compared to the unmodified antibiotics (S. aureus ATCC 25923): no enhancement of activity
attenuation of antibacterial activity by native siderophores (E. coli CFT073 [2]): only attenuated in the presence of Ent and MGE
killing of E. coli CFT073 co-cultured with S. aureus 25923 [3]: killed E. coli CFT073

CC1(C)SC2C(NC(=O)C(NC(=O)CCCc3cn(CCOCCOCCOCCNC(=O)c4cc(O)c(O)c(C(=O)NC5COC(=O)C(NC(=O)c6cc(C7OC(CO)C(O)C(O)C7O)cc(O)c6O)COC(=O)C(NC(=O)c6cccc(O)c6O)COC5=O)c4)nn3)c3ccccc3)C(=O)N2C1C(=O)O (stereo not drawn) [MGE-Amp]
antibacterial activity at 100 nM (E. coli K-12; [5]): inactive
antibacterial activity, comparison (E. coli K-12; [5]): more active against the bacteria than DGE-Amp
concentrations at which E. coli K-12 was inhibited (E. coli K-12): micromolar concentrations
antibacterial activity at 100 nM (E. coli B; 200 μM DP): inactive
antibacterial activity, comparison (E. coli B; 200 μM DP): more active against the bacteria than DGE-Amp
concentration providing complete growth inhibition (E. coli UTI89): 100 nM
concentration providing complete growth inhibition (E. coli CFT073 [1]; 50% MHB, 30° C., t=19 h): 10 nM
effect of preloading Fe(III) on antibacterial activity (E. coli CFT073 [1]; [5]): no effect
attenuation of antibacterial activity by native siderophores (E. coli CFT073 [2]): attenuated by Ent, MGE, and DGE
strain-specific growth inhibition in the mixed culture assays [4]: specifically inhibited the growth of the uropathogenic E. coli

Reference: patent US9902986B2, “Enterobactin conjugates and uses thereof” (Massachusetts Institute of Technology, priority 2013, dated 2018)
